From patent EP0319906A2, “Novel quinoline derivatives, processes for preparation thereof and antibacterial agent containing them” (Dainippon Pharmaceutical Co., Ltd., priority 1987, dated 1989)
≈ marks a conversion by molar mass, not a printed value.

Key:
Format in all cases: cell-based
E. coli NIHJ JC-2 = assay: In vitro antibacterial activity, twofold agar-dilution MIC; details: Escherichia coli, NIHJJC2; E. coli NIHJ JC-2; Mueller-Hinton agar, 20-hour incubation at 37 °C; calculated for free base; read-out: minimum inhibitory concentrations (MIC)
Experimental: (§1) The figures in the table show minimum inhibitory concentrations (MIC) (µg/ml), calculated for free base. […] One loopful of an overnight culture of test organisms in Mueller-Hinton broth was inoculated onto 10 ml drug- containing agar layers in petri dishes. Bacterial inocula contained approximately 10⁶ colonyl-forming units. […] The MIC was defined as the lowest drug concentration which prevented visible bacterial growth.

E. coli P-5101 = assay: as above; details: Escherichia coli, P5101; E. coli P-5101; Mueller-Hinton agar, 20-hour incubation at 37 °C; calculated for free base; read-out: minimum inhibitory concentrations (MIC)
Experimental: as §1

P. aeruginosa 12 = assay: as above; details: Pseudomonas aeruginosa; P. aeruginosa 12; Mueller-Hinton agar, 20-hour incubation at 37 °C; calculated for free base; read-out: minimum inhibitory concentrations (MIC)
Experimental: as §1

S. aureus 209 JC-1 = assay: as above; details: Staphylococcus aureus, 209JC1; S. aureus 209 JC-1; Mueller-Hinton agar, 20-hour incubation at 37 °C; calculated for free base; read-out: minimum inhibitory concentrations (MIC)
Experimental: as §1

S. aureus No. 80 = assay: as above; details: Staphylococcus aureus; S. aureus No. 80; Mueller-Hinton agar, 20-hour incubation at 37 °C; calculated for free base; read-out: minimum inhibitory concentrations (MIC)
Experimental: as §1

S. aureus Terajima = assay: as above; details: Staphylococcus aureus; S. aureus Terajima; Mueller-Hinton agar, 20-hour incubation at 37 °C; calculated for free base; read-out: minimum inhibitory concentrations (MIC)
Experimental: as §1

S. epidermidis No. 8 = assay: as above; details: Staphylococcus epidermidis; S. epidermidis No. 8; Mueller-Hinton agar, 20-hour incubation at 37 °C; calculated for free base; read-out: minimum inhibitory concentrations (MIC)
Experimental: as §1

S. marcescens S-9 = assay: as above; details: Serratia marcescens, S9; S. marcescens S-9; Mueller-Hinton agar, 20-hour incubation at 37 °C; calculated for free base; read-out: minimum inhibitory concentrations (MIC)
Experimental: as §1

S. pyogenes A65 = assay: as above; details: Streptococcus pyogenes; S. pyogenes A65; Mueller-Hinton agar, 20-hour incubation at 37 °C; calculated for free base; read-out: minimum inhibitory concentrations (MIC)
Experimental: as §1

[1] = test system: C. Trachomatics G/ur 1242; assay: Antichlamydia activity, MIC in McCoy cells (inclusion bodies); details: C. Trachomatics G/ur 1242; McCoy cells, 36 °C for 40-48 hours; calculated for free base; read-out: minimum inhibitory concentrations (MIC)
Experimental: (§2) The figures in the table show minimum inhibitory concentrations (MIC), (μg/ml), calculated for free base. Minimum inhibitory concentrations (MIC) were determined as follows. […] The cells were trypsinized and suspended in the same culture medium at a cell concentration of 1-2 x 10^5 cells/ml. One ml of the cell suspension was pipetted into flat-bottomed plastic tubes (14 mm in diameter) containing a cover slip (12 mm in diameter). The tubes were incubated in 5 % CO2-air at 36 °C for 20 hours. One-half ml of a chlamydial suspension (ca. 1-4 x 103 inclusion body forming units) was added into each tube, which was then centrifuged at 1500 x g for 60 minutes. The tubes were incubated for 1 hour at 36 °C. […] After further incubation at 36 °C for 40-48 hours, the cells on the cover glasses were stained with the Giemsa's solution. […] The MIC was defined as the lowest drug concentration where there were no inclusion bodies in all the cells on the cover slip.

[2] = test system: C. Trachomatics G/ur 1317; assay: as above; details: C. Trachomatics G/ur 1317; McCoy cells, 36 °C for 40-48 hours; calculated for free base; read-out: minimum inhibitory concentrations (MIC)
Experimental: as §2

[3] = test system: C. Trachomatics G/ur 1448; assay: as above; details: C. Trachomatics G/ur 1448; McCoy cells, 36 °C for 40-48 hours; calculated for free base; read-out: minimum inhibitory concentrations (MIC)
Experimental: as §2

C. Trachomatics G/ur 931 = assay: as above; details: C. Trachomatics G/ur 931; McCoy cells, 36 °C for 40-48 hours; calculated for free base; read-out: minimum inhibitory concentrations (MIC)
Experimental: as §2

A. laidlawii PG-8 = assay: Antimycoplasma activity, twofold agar dilution MIC; details: Acholeplasma laidlawii, PG8, 48 h; A. laidlawii PG-8; Chanock agar, 37 °C for 2 days, aerobically; calculated for free base; read-out: minimum inhibitory concentrations (MIC)
Experimental: (§3) The figures in the table show minimum inhibitory concentrations (MIC), (μg/ml), calculated for free base. Minimum inhibitory concentrations (MIC) were determined by the twofold agar dilution method. The media used were Chanock broth and agar [PPLD broth and agar (Difco) supplemented with 20 % horse serum and 10 % fresh yeast extract]. A 2-3 day broth culture of organisms was diluted with Chanock broth to a cell density of about 10^6 cells/ml. One loopful (about […]) of the organism dilution was spotted onto 10-ml drug containing Chanock agar in petri dishes using a multiple inoculator ([…] International). […] Incubation was performed anaerobically using the […] anaerobic system (BBL) for M. buccale, M. fermentans, M. hominis, M. orale and M. salivarium, and aerobically for other Mycoplasma spp. The MIC was defined as the lowest compound concentration at which no growth of organism was detected.

M. arginini G-230 = assay: Antimycoplasma activity, twofold agar dilution MIC; details: 48 h; M. arginini G-230; Chanock agar, 37 °C for 2 days, aerobically; calculated for free base; read-out: minimum inhibitory concentrations (MIC)
Experimental: as §3

M. buccale CH-20249 = assay: Antimycoplasma activity, twofold agar dilution MIC; details: 48 h; M. buccale CH-20249; Chanock agar, 37 °C for 2 days, anaerobically; calculated for free base; read-out: minimum inhibitory concentrations (MIC)
Experimental: as §3

M. fermentans PG-18 = assay: Antimycoplasma activity, twofold agar dilution MIC; details: Mycoplasmopsis fermentans, PG18, 48 h; M. fermentans PG-18; Chanock agar, 37 °C for 2 days, anaerobically; calculated for free base; read-out: minimum inhibitory concentrations (MIC)
Experimental: as §3

M. hominis PG-21 = assay: Antimycoplasma activity, twofold agar dilution MIC; details: Metamycoplasma hominis, PG21, 48 h; M. hominis PG-21; Chanock agar, 37 °C for 2 days, anaerobically; calculated for free base; read-out: minimum inhibitory concentrations (MIC)
Experimental: as §3

M. hyorhinis BST-7 = assay: Antimycoplasma activity, twofold agar dilution MIC; details: Mesomycoplasma hyorhinis, BST7, 48 h; M. hyorhinis BST-7; Chanock agar, 37 °C for 2 days, aerobically; calculated for free base; read-out: minimum inhibitory concentrations (MIC)
Experimental: as §3

M. orale CH-19299 = assay: Antimycoplasma activity, twofold agar dilution MIC; details: po, 48 h; M. orale CH-19299; Chanock agar, 37 °C for 2 days, anaerobically; calculated for free base; read-out: minimum inhibitory concentrations (MIC)
Experimental: as §3

M. pneumoniae Mac = assay: Antimycoplasma activity, twofold agar dilution MIC; details: Mycoplasmoides pneumoniae, 168 h; M. pneumoniae Mac; Chanock agar, 37 °C for 7 days, aerobically; calculated for free base; read-out: minimum inhibitory concentrations (MIC)
Experimental: as §3

M. salivarium PG-20 = assay: Antimycoplasma activity, twofold agar dilution MIC; details: 48 h; M. salivarium PG-20; Chanock agar, 37 °C for 2 days, anaerobically; calculated for free base; read-out: minimum inhibitory concentrations (MIC)
Experimental: as §3

- MIC (E. coli NIHJ JC-2): 0.0125 µg/mL (≈ 0.0331 µM)
- MIC (E. coli P-5101): 0.0125 µg/mL (≈ 0.0331 µM)
- MIC (P. aeruginosa 12): 0.78 µg/mL (≈ 2.07 µM)
- MIC (S. aureus 209 JC-1): 0.1 µg/mL (≈ 0.265 µM)
- MIC (S. aureus No. 80): 0.1 µg/mL (≈ 0.265 µM)
- MIC (S. aureus Terajima): 0.1 µg/mL (≈ 0.265 µM)
- MIC (S. epidermidis No. 8): 0.1 µg/mL (≈ 0.265 µM)
- MIC (S. marcescens S-9): 0.2 µg/mL (≈ 0.53 µM)
- MIC (S. pyogenes A65): 0.78 µg/mL (≈ 2.07 µM)
- MIC [1]: 0.2 µg/mL (≈ 0.53 µM)
- MIC [2]: 0.2 µg/mL (≈ 0.53 µM)
- MIC [3]: 0.2 µg/mL (≈ 0.53 µM)
- MIC (C. Trachomatics G/ur 931): 0.2 µg/mL (≈ 0.53 µM)
- MIC (A. laidlawii PG-8): 0.39 µg/mL (≈ 1.03 µM)
- MIC (M. arginini G-230): 0.39 µg/mL (≈ 1.03 µM)
- MIC (M. buccale CH-20249): 0.2 µg/mL (≈ 0.53 µM)
- MIC (M. fermentans PG-18): 0.1 µg/mL (≈ 0.265 µM)
- MIC (M. hominis PG-21): 0.2 µg/mL (≈ 0.53 µM)
- MIC (M. hyorhinis BST-7): 0.1 µg/mL (≈ 0.265 µM)
- MIC (M. orale CH-19299): 0.78 µg/mL (≈ 2.07 µM)
- MIC (M. pneumoniae Mac): 0.2 µg/mL (≈ 0.53 µM)
- MIC (M. salivarium PG-20): 0.78 µg/mL (≈ 2.07 µM)
SMILES: C[C@@H]1CN(c2c(F)cc3c(=O)c(C(=O)O)cn(C4CC4)c3c2F)C[C@H](C)N1 [Compound C, 1-cyclopropyl-6,8-difluoro-7-(cis-3,5-dimethyl-1-piperazinyl)-1,4-dihydro-4-oxoquinoline-3-carboxylic acid]
